We go through two molecules from PMC8213057, “Targeting ALK2: An Open Science Approach to Developing Therapeutics for the Treatment of Diffuse Intrinsic Pontine Glioma” (Journal of Medicinal Chemistry, 2020).

The target in one test is T1, MEKK2 (Homo sapiens, UniProt Q9Y2U5).
T1 sequence (Q9Y2U5 1-619): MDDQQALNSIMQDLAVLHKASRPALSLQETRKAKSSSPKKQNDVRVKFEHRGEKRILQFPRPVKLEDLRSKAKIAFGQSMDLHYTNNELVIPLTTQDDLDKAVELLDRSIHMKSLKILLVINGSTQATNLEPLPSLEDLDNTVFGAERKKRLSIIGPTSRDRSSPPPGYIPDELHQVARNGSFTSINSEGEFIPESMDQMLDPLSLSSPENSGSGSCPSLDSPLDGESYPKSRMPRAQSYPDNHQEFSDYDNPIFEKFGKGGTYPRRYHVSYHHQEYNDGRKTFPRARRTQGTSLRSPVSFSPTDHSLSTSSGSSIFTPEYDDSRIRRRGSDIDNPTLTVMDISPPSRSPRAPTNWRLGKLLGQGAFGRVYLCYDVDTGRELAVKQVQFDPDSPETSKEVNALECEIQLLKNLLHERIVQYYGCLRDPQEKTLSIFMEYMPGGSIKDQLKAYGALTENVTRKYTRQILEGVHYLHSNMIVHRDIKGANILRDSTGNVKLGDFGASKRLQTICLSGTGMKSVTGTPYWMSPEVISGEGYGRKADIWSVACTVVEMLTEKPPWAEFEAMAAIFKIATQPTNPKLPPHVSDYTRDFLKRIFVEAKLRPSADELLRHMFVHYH
The settings on record: 1 μM; Run 1, Run 2.

The next test addresses T2, ARK5/NUAK1 (Homo sapiens, UniProt O60285).
T2 sequence (O60285 1-661): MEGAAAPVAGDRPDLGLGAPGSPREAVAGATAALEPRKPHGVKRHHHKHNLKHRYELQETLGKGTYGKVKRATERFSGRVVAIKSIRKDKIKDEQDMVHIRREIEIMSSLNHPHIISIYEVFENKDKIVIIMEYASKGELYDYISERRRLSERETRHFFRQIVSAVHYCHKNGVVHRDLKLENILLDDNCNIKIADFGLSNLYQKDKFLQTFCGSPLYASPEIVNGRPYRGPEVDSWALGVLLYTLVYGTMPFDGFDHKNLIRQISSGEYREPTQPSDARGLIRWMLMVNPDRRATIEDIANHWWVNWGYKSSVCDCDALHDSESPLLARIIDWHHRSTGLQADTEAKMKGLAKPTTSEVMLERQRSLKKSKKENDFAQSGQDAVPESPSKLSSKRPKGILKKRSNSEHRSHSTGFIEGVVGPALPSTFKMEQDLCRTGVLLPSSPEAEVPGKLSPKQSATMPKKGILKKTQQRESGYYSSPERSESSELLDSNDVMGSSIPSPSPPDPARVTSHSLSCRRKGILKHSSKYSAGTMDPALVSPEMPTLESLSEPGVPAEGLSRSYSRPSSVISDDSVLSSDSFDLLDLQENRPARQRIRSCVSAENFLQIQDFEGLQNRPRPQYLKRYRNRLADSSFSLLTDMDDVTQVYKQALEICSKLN
As to the kind of experiment: biochemical. Conditions: read-out: % enzyme activity, 1 μM; Run 1, Run 2.

In a further test the target is ERN1/IRE1 (Homo sapiens, UniProt O75460). Description: biochemical. The settings on record: read-out: % enzyme activity, 1 μM; Run 1, Run 2.
Sequence of ERN1/IRE1 (O75460 19-977): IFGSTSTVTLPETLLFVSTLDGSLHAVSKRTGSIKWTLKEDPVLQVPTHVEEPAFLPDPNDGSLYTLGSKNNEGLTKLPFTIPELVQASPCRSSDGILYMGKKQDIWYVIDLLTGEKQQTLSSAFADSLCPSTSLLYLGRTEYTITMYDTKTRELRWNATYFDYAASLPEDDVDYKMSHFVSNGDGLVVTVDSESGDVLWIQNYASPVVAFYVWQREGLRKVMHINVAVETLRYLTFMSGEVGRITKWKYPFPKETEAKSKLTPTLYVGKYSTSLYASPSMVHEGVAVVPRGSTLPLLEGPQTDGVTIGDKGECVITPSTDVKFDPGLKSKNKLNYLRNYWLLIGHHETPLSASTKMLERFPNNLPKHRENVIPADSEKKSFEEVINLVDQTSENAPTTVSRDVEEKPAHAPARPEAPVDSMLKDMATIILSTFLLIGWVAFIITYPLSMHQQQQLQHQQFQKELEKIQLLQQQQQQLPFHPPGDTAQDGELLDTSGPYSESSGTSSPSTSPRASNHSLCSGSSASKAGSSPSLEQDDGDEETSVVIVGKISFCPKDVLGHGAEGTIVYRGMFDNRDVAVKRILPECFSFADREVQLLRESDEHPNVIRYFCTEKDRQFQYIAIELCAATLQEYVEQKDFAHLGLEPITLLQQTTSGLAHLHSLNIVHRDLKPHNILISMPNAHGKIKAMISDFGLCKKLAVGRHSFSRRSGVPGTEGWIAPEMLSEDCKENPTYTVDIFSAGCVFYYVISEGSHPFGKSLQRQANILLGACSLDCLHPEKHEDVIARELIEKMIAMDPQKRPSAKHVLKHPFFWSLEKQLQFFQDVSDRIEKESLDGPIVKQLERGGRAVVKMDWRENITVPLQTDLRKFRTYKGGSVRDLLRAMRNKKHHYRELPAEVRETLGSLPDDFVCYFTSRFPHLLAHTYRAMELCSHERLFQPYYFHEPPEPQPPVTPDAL
The target in another test is T3, EPHA6 (Homo sapiens, UniProt Q9UF33).
T3 sequence (Q9UF33 23-1036): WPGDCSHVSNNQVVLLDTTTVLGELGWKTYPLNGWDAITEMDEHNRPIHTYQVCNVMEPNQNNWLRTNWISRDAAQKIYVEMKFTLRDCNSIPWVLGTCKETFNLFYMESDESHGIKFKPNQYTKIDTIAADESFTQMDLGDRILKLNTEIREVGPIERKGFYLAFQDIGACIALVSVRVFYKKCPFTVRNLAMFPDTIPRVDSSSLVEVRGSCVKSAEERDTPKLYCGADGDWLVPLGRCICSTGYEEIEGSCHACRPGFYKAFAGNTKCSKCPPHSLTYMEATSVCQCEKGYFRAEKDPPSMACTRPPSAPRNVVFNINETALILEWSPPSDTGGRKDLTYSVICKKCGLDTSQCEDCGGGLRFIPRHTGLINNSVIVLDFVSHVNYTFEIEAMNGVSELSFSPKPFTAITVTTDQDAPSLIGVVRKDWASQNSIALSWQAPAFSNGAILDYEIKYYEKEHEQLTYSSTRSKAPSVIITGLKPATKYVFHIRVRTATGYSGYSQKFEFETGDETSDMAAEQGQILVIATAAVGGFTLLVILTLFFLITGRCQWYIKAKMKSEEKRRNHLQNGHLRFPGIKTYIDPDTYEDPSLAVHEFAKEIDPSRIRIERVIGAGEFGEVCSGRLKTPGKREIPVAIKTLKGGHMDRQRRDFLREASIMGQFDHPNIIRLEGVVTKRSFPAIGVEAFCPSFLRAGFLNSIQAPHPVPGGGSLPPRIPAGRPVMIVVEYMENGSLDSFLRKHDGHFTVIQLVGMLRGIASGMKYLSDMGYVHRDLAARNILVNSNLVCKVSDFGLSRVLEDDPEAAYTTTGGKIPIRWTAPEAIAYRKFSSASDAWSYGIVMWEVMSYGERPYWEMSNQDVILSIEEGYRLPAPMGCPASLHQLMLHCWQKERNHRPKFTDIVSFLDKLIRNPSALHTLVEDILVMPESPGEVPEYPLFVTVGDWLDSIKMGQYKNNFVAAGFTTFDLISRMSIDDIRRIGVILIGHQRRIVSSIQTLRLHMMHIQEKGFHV
The settings on record: 1 μM; Run 1, Run 2.

In the case of `COc1cc(-c2cncc(-c3ccc(N4CCN(C)CC4)cc3)c2C)cc(F)c1C(N)=O` [Compound 26a, 2-Fluoro-6-methoxy-4-(4-methyl-5-(4-(4-methylpiperazin-1-yl)phenyl)pyridin-3-yl)benzamide], the “% enzyme activity” value on MEKK2 worked out at 95.51%; at EPHA6, 103.54%. Also, the remaining activity at 1 µM worked out at 97.6% at ARK5/NUAK1 and 92.8% at ERN1/IRE1.
As for `COc1cc(-c2cncc(-c3ccc(N4C[C@@H](C)N(C)[C@@H](C)C4)cc3)c2C)cc(F)c1C(N)=O` [Compound 26c, 2-Fluoro-6-methoxy-4-(4-methyl-5-(4-((3R,5S)-3,4,5-trimethylpiperazin-1-yl)phenyl)pyridin-3-yl)benzamide], the “% enzyme activity” value at MEKK2 stood at 100.62%; on EPHA6, 103.73%. Also, the remaining activity at 1 µM is 96% at ARK5/NUAK1 and 91% on ERN1/IRE1.
